For assay [1], the system named is SKOV-3x-FF-luci human ovarian cancer xenograft. Briefly: Antitumor effect in SKOV-3x-FF-luci xenograft with vincristine (VCR). It counts as in vivo, Balb/c nu/nu mice. As to the method:
In order to expand the anti-tumor spectrum, more combination testing is explored. Based on in vitro synergistic effect of Example 1 and VCR, the compound is tested for its anti-tumor effects in SKOV-3x-FF-luci xenograft in the presence/absence of VCR. The SKOV-3x-FF-luci human ovarian cancer line (ATCC) is cultured in McCoy's 5a medium containing 10% FCS. Female Balb/c nu/nu mice (6-7 weeks old) are peritoneally injected with 0.2 mL of cell suspension containing 2×10^6 cells. Mice are divided into nine groups six days after cell implantation. The test compound is orally administered twice a day at 60 mg/kg for 20 consecutive days or at 90 mg/kg with a 2 days on and 5 days off dosing schedule. VCR at 1 or 0.3 mg/kg is administered via tail vein injection, once a week. In the combination group, VCR is given 1 h after the administration of the test compound. Mice from the control group are administered with the oral vehicle (10% Acacia at pH2.1) and intraperitoneally injected with saline. At the end of the treatment, all mice are euthanized with CO2 and tumors in the peritoneal cavity, diaphragmatic muscle, mesenterium, liver, spleen, and ovaries are harvested with surgery scissors and weighted. […] In the combination group, tumor growth is inhibited by 76% and 74%. Compared with monotherapy, statistical significance is found between combination and monotherapy.

The test system of assay [2] is collagen induced arthritis. In words: Collagen induced arthritis (CIA) model in mice. Format: in vivo, DBA/1 mice. As to the method: Previous studies have shown that small molecular inhibitors of IKKβ are efficacious in a mouse CIA model (Podolin, P L et al, J. Pharm. Exp. Ther., 2005, 312: 373-381). In addition, mice with T cells expressing a dominant—negative form of IkBa are protected from developing CIA (Seetharaman R. et al. J. Immunol. 1999: 163, 1577-1583). […] Therefore a compound of the present invention is tested in the collagen induced arthritis (CIA) model in mice essentially as described in a method reported in the literature (Rosloniec E F, Cremer M, Kang A, Myers L K. Current Protocols in Immunology. 1996, 15.5.1-15.5.24).
Briefly, DBA/1 mice are immunized intradermally with chicken collagen II (200 μg/mouse) emulsified with Freund's complete adjuvant (CFA, Sigma, US) on day 0 and day 21 to elicit arthritis. The severity of arthritis is assessed using a visual scoring system, in which each paw is graded from 0 to 4 (0=normal, 4=severe swelling of the entire paw). The hind joint thicknesses are measured with a micrometer. The testing compound is orally administered for either prophylactic or therapeutic purposes. For the prophylactic study, the testing compound is orally administered twice daily from day 1 to day 42. For the therapeutic study, the drug treatment is started after the onset of arthritis, which usually occurs within one week of 2nd immunization. Mice are treated with the drug for 21 days. […]

Assay [3] deals with OVA-induced airway inflammation. Briefly: Ovalbumin (OVA)-induced pulmonary inflammation in mice. It counts as in vivo, Balb/c mice. Here is the method:
A compound of the present invention is tested in an OVA-induced pulmonary inflammation model in mice essentially as described in a method reported in the literature (Muriel Pichavant, Sho Goya, Eckard Hamelmann, Erwin W. Gelfand, and Dale T. Umetsu. Animal Models of Airway Sensitization. Current Protocols in Immunology. (1999) 15.18.1-15.18.13). Briefly, female Balb/c mice weighing from 18 to 20 g are sensitized by introperitoneal injection of 100 μL of saline containing 20 μg of OVA and 2 mg of aluminum hydroxide on day 1 and 14. On days 28, 29 and 30, mice are challenged once each by aerosolizing 1% ovalbumin (OVA) in phosphate buffered saline (PBS) for 20 minutes with Buxco Mass Dosing System. […] On day 32, animals from each group are anesthetized with 1% of pentobarbital sodium. The thoracic and abdominal cavities are opened and plasma is collected from centrifuged specimens. The trachea is then dissected and transected. Through the insertion of an 18-gauge catheter into the trachea, the lungs are lavaged with a total of 1.5 mL of sterile PBS and then placed into a specimen container. Cell-free BAL supernatants are obtained by centrifugation of BAL fluids. All serum and BAL supernatants are stored at −80° C. until use. Differential cell counts are performed on cytospin preparations of BAL cells for cell counting and cytokine determination. After the collection of BAL supernatants, the lungs of recipient mice are removed en bloc and fixed by an intratracheal instillation of 10% buffered formalin (in PBS). Three to six paraffin sections are obtained from the perihilar regions of recipient lungs, stained with hematoxylin and eosin, and examined under light microscopy for pathological study.

The record followed here is patent US8501166B2, “Pyrimidinyl indole compounds” (Hutchison Medipharma Limited, priority 2010, dated 2013).

Each structure is given as a SMILES string. Counter-ions that a name gives are not always drawn.

Regarding `O=C(NC1CC1)c1cccc2[nH]c(-c3nc(N[C@@H]4CCC[C@@H]4O)ncc3Cl)cc12` [Example 1, 2-{5-Chloro-2-[(1R,2S)-2-hydroxycyclopentylamino]pyrimidin-4-yl}-N-cyclopropyl-1H-indole-4-carboxamide hydrochloride], the tumor growth inhibition came out at 42% in assay [1] (Example 1 alone 60 mg/kg oral twice a day, 20 days); 36% in assay [1] (Example 1 alone 90 mg/kg, 2 days on and 5 days off); 76% in assay [1] (combination group: Example 1 60 mg/kg + VCR); 74% in assay [1] (combination group: Example 1 90 mg/kg + VCR).
Take `Cl.O=C(NC1CC1)c1cccc2[nH]c(-c3nc(N[C@@H]4CCC[C@H]4O)ncc3Cl)cc12` [Example 2, 2-{5-Chloro-2-[(1R,2R)-2-hydroxycyclopentylamino]pyrimidin-4-yl}-N-cyclopropyl-1H-indole-4-carboxamide hydrochloride]: in assay [2] (10 and 30 mg/kg bid (20 and 60 mg/kg/day)), the “joint swelling and arthritis scores” value was “Statistically significant inhibition of joint swelling and reduction of arthritis scores”. Besides, the ED50 in assay [2] (1008 h, mouse CIA, oral bid for 42 days, read-out: ED50, joint swelling and arthritis scores) was found to be 4.3 mg/kg. Also, the “decrease of eosinophil cell numbers” value in assay [3] (1 mg/kg (bid)) stood at 58.6%; in assay [3] (3 mg/kg (bid)), 49.3%; in assay [3] (10 mg/kg (bid), p<0.05) it was 94.1%; in assay [3] (30 mg/kg (bid), p<0.05), 90.2%. The “reduction of IL-13 production” value in assay [3] (10 mg/kg, p<0.05) was 73.0%; in assay [3] (30 mg/kg, p<0.01), 85.1%. In assay [3] (Example 2 at 1 to 30 mg/kg), the “lung histology, hematoxylin and eosin stains” value was “improvement in pulmonary inflammation”.
